US20240199577A1, “ACORAMIDIS ANALOGS FOR STABILIZING TRANSTHYRETIN AND INHIBITING TRANSTHYRETIN MISFOLDING” (Protego Biopharma, Inc., priority 2021, published 2024)
Values belong to the molecule of their own block, whether it stands above or below them.

How the values were obtained:
[1] = Pharmacokinetic study in rat (plasma, CSF, brain); assay type: in vivo; conditions: male, Sprague-Dawley, oral dose of 40 mg/kg
Description: For a compound provided herein to be an effective TTR stabilizer drug to halt and/or prevent the ocular and cerebral TTR amyloid deposition TTR amyloidosis, it has to be able to penetrate into the brain and CSF (surrogate for eye penetration) and deliver a sufficient amount of TTR stabilizer to stop TTR dissociation. A pharmacokinetic study in rat is used to evaluate the compounds. Male Sprague-Dawley (SD) rats (200-220 g weight) are acclimated for at least 2 to 3 days before being placed on study. All animals will have access to certified rodent diet and water at libitum. […] For IV dosing, the test compound is administered via tail vein or indwelling cannula. For oral dosing, the test compound is administered by oral gavage. Blood and CSF samples are collected at selected timepoints. Blood collection is performed from saphenous vein or tail vein of each animal into polypropylene tubes at each timepoint. […] The weight of brain samples is recorded. […] Using a LC-MSMS method for the quantitative determination of test compound in biological matrixes, amount of test compound and active agent are measured in plasma and CSF at selected timepoints post-dosing and in brain at 24 hrs post dosing. Plasma concentration versus time data is analyzed by non-compartmental approaches using the Phoenix WinNonlin 6.3 software program. […]

[2] = tafamidis-treated FAP patients, cited from earlier work
[3] = In vitro rat liver S9 stability assay (formation of AG10); assay type: in vitro ADME; conditions: rat liver S9, 1 μM test compound, 37° C.
Protocol: The test compound was added to liver S9 and incubated at 37° C. in a water bath at a concentration of 1 μM. At each time point (0, 5, 10, 20, 30 and 60 min), stop solution (tolbutamide plus labetalol) was added to precipitate protein and mixed thoroughly. After centrifugation, an aliquot of supernatant was analyzed by LC-MS/MS. The percentage of formation of active agent was calculated at each time point.

Kp ([1]; CSF and plasma, over 24 hrs, read-out: CSF to plasma ratio over 24 hrs): ~0.009 | Kp at 24 h ([1]; brain and plasma, at 24 hrs, read-out: brain to plasma ratio at 24 hrs): ~0.008
SMILES: Cc1n[nH]c(C)c1CCCOc1cc(C(=O)O)ccc1F [AG10, acoramidis]

SMILES: O=C(O)c1ccc2nc(-c3cc(Cl)cc(Cl)c3)oc2c1 [tafamidis]
tafamidis level in CSF relative to that in plasma ([2]; CSF): 2% | tafamidis/TTR stoechimetric ratio in CSF ([2]; CSF): ≤ 1 | tafamidis/TTR stoechimetric ratio in plasma ([2]; plasma): 2.4 | tafamidis level in vitreous relative to that in plasma ([2]; vitreous): 0.5% | tafamidis/TTR stoechimetric ratio in vitreous ([2]; vitreous): ≤ 1

Formation of AG10 at 60 min [3]: A (A is <25%)
SMILES: Cc1n[nH]c(C)c1CCCOc1cc(C(=O)OC2CCN(C)C2)ccc1F (centres unmarked) [Compound 2, 1-methylpyrrolidin-3-yl 3-(3-(3,5-dimethyl-1H-pyrazol-4-yl)propoxy)-4-fluorobenzoate]
